Activity calls are given as the source filed them. The rule behind the calls is not given here.
Tested on: rodent carcinogenicity bioassays, tumor incidence
Assay: CCRIS carcinogenicity studies
In short: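 NCI-built, expert-reviewed records of carcinogenicity and related test outcomes (mutagenicity, tumor promotion/inhibition) compiled from published and report sources, historical span 1985-2011, not updated.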

## Cc1ccc(S(=O)(=O)O)cc1C
Species: MOUSE, Strain/Sex: B6C3F1/FEMALE, Route: DERMAL, Dose: 0, 182, 364, 727 MG/KG IN 50% ETHANOL 5D/WK FOR 105 WK (STUDY DURATION: 105 WK), Dose: 0, 182, 364, 727 MG/KG IN 50% ETHANOL 5D/WK FOR 105 WK (STUDY DURATION: 105 WK)
  carcinogen call: inactive; negative
Species: MOUSE, Strain/Sex: B6C3F1/MALE, Route: DERMAL, Dose: 0, 182, 364, 727 MG/KG IN 50% ETHANOL 5D/WK FOR 104 WK (STUDY DURATION: 104 WK), Dose: 0, 182, 364, 727 MG/KG IN 50% ETHANOL 5D/WK FOR 104 WK (STUDY DURATION: 104 WK)
  carcinogen call: inactive; negative
Species: RAT, Strain/Sex: F344/FEMALE, Route: DERMAL, Dose: 0, 60, 120, 240 MG/KG IN 50% ETHANOL 5 D/WK FOR 104 WK (STUDY DURATION: 104 WK), Dose: 0, 60, 120, 240 MG/KG IN 50% ETHANOL 5 D/WK FOR 104 WK (STUDY DURATION: 104 WK)
  carcinogen call: inactive; negative
Species: RAT, Strain/Sex: F344/MALE, Route: DERMAL, Dose: 0, 60, 120, 240 MG/KG IN 50% ETHANOL 5D/WK FOR 104 WK (STUDY DURATION: 104 WK), Dose: 0, 60, 120, 240 MG/KG IN 50% ETHANOL 5D/WK FOR 104 WK (STUDY DURATION: 104 WK)
  carcinogen call: inactive; negative

## Nc1ccc(Cl)cc1N
Species: MOUSE, Strain/Sex: B6C3F1/FEMALE, Route: ORAL, Dose: 0, 0.7, 1.4% TWA, IN DIET FOR 78 WK (STUDY DURATION: 96-97 WK), Dose: 0, 0.7, 1.4% TWA, IN DIET FOR 78 WK (STUDY DURATION: 96-97 WK), Tumor Site: Type of Lesion: LIVER: HEPATOCELLULAR CARCINOMA, HEPATOCELLULAR ADENOMA OR CARCINOMA
  carcinogen call: active; positive
Species: MOUSE, Strain/Sex: B6C3F1/MALE, Route: ORAL, Dose: 0, 0.7, 1.4% TWA, IN DIET FOR 78 WK (STUDY DURATION: 95-97 WK), Dose: 0, 0.7, 1.4% TWA, IN DIET FOR 78 WK (STUDY DURATION: 95-97 WK), Tumor Site: Type of Lesion: LIVER: HEPATOCELLULAR CARCINOMA, HEPATOCELLULAR ADENOMA OR CARCINOMA
  carcinogen call: active; positive
Species: RAT, Strain/Sex: F344/FEMALE, Route: ORAL, Dose: 0, 0.5, 1.0% IN DIET FOR 78 WK (STUDY DURATION: 106 WK), Dose: 0, 0.5, 1.0% IN DIET FOR 78 WK (STUDY DURATION: 106 WK), Tumor Site: Type of Lesion: URINARY BLADDER: PAPILLARY CARCINOMA OR TRANSITIONAL CELL CARCINOMA, PAPILLARY CARCINOMA OR TRANSITIONAL CELL CARCINOMA
  carcinogen call: active; positive
Species: RAT, Strain/Sex: F344/MALE, Route: ORAL, Dose: 0, 0.5, 1.0% IN DIET FOR 78 WK (STUDY DURATION: 105-106 WK), Dose: 0, 0.5, 1.0% IN DIET FOR 78 WK (STUDY DURATION: 105-106 WK), Tumor Site: Type of Lesion: URINARY BLADDER: TRANSITIONAL CELL CARCINOMA, PAPILLOMA (NOS) OR TRANSITIONAL CELL PAPILLOMA OR TRANSITIONAL CELL CARCIN
  carcinogen call: active; positive

## Oc1ccc(O)c(-c2ccccc2)c1
Species: MOUSE, Strain/Sex: CD-1/FEMALE, Route: DERMAL, Dose: 0, 10 MG IN DMSO 5 D/WK FOR 40 WK (STUDY DURATION: 40 WK)
  carcinogen call: inactive; negative
Species: RAT, Strain/Sex: F344/FEMALE, Route: INTRAVESICULAR, Dose: 0, 1% IN 0.2 ML SALINE 2/WK FOR 5 WK (STUDY DURATION: 36 WK)
  carcinogen call: inactive; negative

## O=P(O)(O)CCCl
Species: Mouse, Strain/Sex: CD-1 albino/Female (20 or 50/Group), Route: Oral, Dose: 0, 100, 1000, 10,000 ppm of 70.6-72.1% ethephon for 52 (20/Group) wks and 78 (50/Group) wks, Dose: 0, 100, 1000, 10,000 ppm of 70.6-72.1% ethephon for 52 (20/Group) wks and 78 (50/Group) wks
  carcinogen call: inactive; negative
Species: Mouse, Strain/Sex: CD-1 albino/Male (20 or 50/Group), Route: Oral, Dose: 0, 100, 1000, 10,000 ppm of 70.6-72.1% ethephon for 52 (20/Group) wks and 78 (50/Group) wks, Dose: 0, 100, 1000, 10,000 ppm of 70.6-72.1% ethephon for 52 (20/Group) wks and 78 (50/Group) wks
  carcinogen call: inactive; negative
Species: Rat, Strain/Sex: Sprague-Dawley CD/Female (30 or 50/Group), Route: Oral, Dose: 0, 300, 3000, 10,000, 30,000 ppm of 70.6-72.1% ethephon for 104 wks, study duration 104 wks, Dose: 0, 300, 3000, 10,000, 30,000 ppm of 70.6-72.1% ethephon for 104 wks, study duration 104 wks
  carcinogen call: inactive; negative
Species: Rat, Strain/Sex: Sprague-Dawley CD/Male (30 or 50/Group), Route: Oral, Dose: 0, 300, 3000, 10,000, 30,000 ppm of 70.6-72.1% ethephon for 97 wks, study duration 97 wks, Dose: 0, 300, 3000, 10,000, 30,000 ppm of 70.6-72.1% ethephon for 97 wks, study duration 97 wks
  carcinogen call: inactive; negative

## COc1cc(C(C)(C)C)c(O)c(C(C)(C)C)c1
Species: HAMSTER, Strain/Sex: SYRIAN/MALE, Route: ORAL, Dose: 1% IN DIET FOR 24 WK (STUDY DURATION: 24 WK)
  carcinogen call: inactive; negative

## OCC1CO1 (stereo unspecified)
Species: MOUSE, Strain/Sex: B6C3F1/FEMALE, Route: GAVAGE, Dose: 0, 25, 50 MG/KG IN DISTILLED WATER 5 D/WK FOR 103 WK (STUDY DURATION: 105 WK), Dose: 0, 25, 50 MG/KG IN DISTILLED WATER 5 D/WK FOR 103 WK (STUDY DURATION: 105 WK), Tumor Site: Type of Lesion: SUBCUTANEOUS TISSUE: SARCOMA, SARCOMA OR FIBROSARCOMA, MAMMARY GLAND: ADENOCARCINOMA, ADENOMA OR FIBROADENOMA OR ADENOCA
  carcinogen call: active; positive
Species: MOUSE, Strain/Sex: B6C3F1/MALE, Route: GAVAGE, Dose: 0, 25, 50 MG/KG IN DISTILLED WATER 5 D/WK FOR 103 WK (STUDY DURATION: 105 WK), Dose: 0, 25, 50 MG/KG IN DISTILLED WATER 5 D/WK FOR 103 WK (STUDY DURATION: 105 WK), Tumor Site: Type of Lesion: SKIN: SQUAMOUS CELL PAPILLOMA, LUNG: ALVEOLAR/BRONCHIOLAR ADENOMA OR CARCINOMA, LIVER: HEPATOCELLULAR ADENOMA, HEPATOCEL, Tumor Site: Type of Lesion: SKIN: SQUAMOUS CELL PAPILLOMA, LUNG: ALVEOLAR/BRONCHIOLAR ADENOMA OR CARCINOMA, LIVER: HEPATOCELLULAR ADENOMA, HEPATOCEL
  carcinogen call: active; positive
Species: RAT, Strain/Sex: F344/FEMALE, Route: GAVAGE, Dose: 0, 37.5, 75 MG/KG IN DISTILLED WATER 5 D/WK FOR 103 WK (STUDY DURATION: 104 WK), Dose: 0, 37.5, 75 MG/KG IN DISTILLED WATER 5 D/WK FOR 103 WK (STUDY DURATION: 104 WK), Tumor Site: Type of Lesion: HEMATOPOIETIC SYSTEM: MONONUCLEAR CELL LEUKEMIA, ORAL CAVITY (MOUTH OR TONGUE): SQUAMOUS CELL PAPILLOMA OR CARCINOMA, FO, Tumor Site: Type of Lesion: HEMATOPOIETIC SYSTEM: MONONUCLEAR CELL LEUKEMIA, ORAL CAVITY (MOUTH OR TONGUE): SQUAMOUS CELL PAPILLOMA OR CARCINOMA, FO
  carcinogen call: active; positive
Species: RAT, Strain/Sex: F344/MALE, Route: GAVAGE, Dose: 0, 37.5, 75 MG/KG IN DISTILLED WATER 5 D/WK FOR 103 WK (STUDY DURATION: 104 WK), Dose: 0, 37.5, 75 MG/KG IN DISTILLED WATER 5 D/WK FOR 103 WK (STUDY DURATION: 104 WK), Tumor Site: Type of Lesion: SKIN: SEBACEOUS GLAND ADENOMA OR BASAL CELL TUMOR OR SEBACEOUS GLAND ADENOCARCINOMA, FORESTOMACH: SQUAMOUS CELL PAPILLOM
  carcinogen call: active; positive

## Nc1c(Cl)cc(Cl)cc1Cl
Species: MOUSE, Strain/Sex: CD-1/MALE, Route: ORAL, Dose: 6000, 12000 PPM IN DIET, Tumor Site: Type of Lesion: BLOOD VESSELS
  carcinogen call: active; positive

## O=Nc1ccc(Nc2ccccc2)cc1
Species: MOUSE, Strain/Sex: B6C3F1/FEMALE, Route: ORAL, Dose: 0, 4254, 9000 PPM IN DIET, TWA, Dose: 0, 4254, 9000 PPM IN DIET, TWA
  carcinogen call: inactive; negative
Species: MOUSE, Strain/Sex: B6C3F1/MALE, Route: ORAL, Dose: 0, 4254, 9000 PPM IN DIET, TWA, Dose: 0, 4254, 9000 PPM IN DIET, TWA, Tumor Site: Type of Lesion: LIVER: HEPATOCELLULAR ADENOMA OR CARCINOMA
  carcinogen call: active; positive
Species: RAT, Strain/Sex: F344/FEMALE, Route: ORAL, Dose: 0, 2500, 5000 PPM IN DIET, Dose: 0, 2500, 5000 PPM IN DIET
  carcinogen call: inactive; negative
Species: RAT, Strain/Sex: F344/MALE, Route: ORAL, Dose: 0, 2500, 5000 PPM IN DIET, Dose: 0, 2500, 5000 PPM IN DIET, Tumor Site: Type of Lesion: LIVER: HEPATOCELLULAR CARCINOMA OR NEOPLASTIC NODULE
  carcinogen call: active; positive

## Oc1c(Cl)cc(Cl)c(Cl)c1Cc1c(O)c(Cl)cc(Cl)c1Cl
Species: RAT, Strain/Sex: F344/FEMALE, Route: ORAL, Dose: 0, 17, 50, 150 PPM IN DIET, Dose: 0, 17, 50, 150 PPM IN DIET
  carcinogen call: inactive; negative
Species: RAT, Strain/Sex: F344/MALE, Route: ORAL, Dose: 0, 17, 50, 150 PPM IN DIET, Dose: 0, 17, 50, 150 PPM IN DIET
  carcinogen call: inactive; negative

From PubChem BioAssay AID1259411 (Chemical Carcinogenesis Research Information System (CCRIS), 2018)
